Measured values taken from PubChem BioAssay (NCI).
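These data come from cells grown in 96-well plates and exposed to compound for 48 hours at five concentrations. Here, GI50 denotes the concentration required for 50% inhibition of growth. TGI: total growth inhibition.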

Key:
Assay in all cases: DTP human tumour cell line panel, 48 h
[1] = test system: SNB-19 CNS
[2] = test system: COLO 205 colon
[3] = test system: CAKI-1 renal
[4] = test system: BT-549 breast
[5] = test system: MOLT-4 leukemia
[6] = test system: NCI-H226 lung
[7] = test system: SR leukemia
[8] = test system: HCT-116 colon
[9] = test system: T-47D breast
[10] = test system: NCI-H23 lung
[11] = test system: MDA-MB-435
[12] = test system: SK-MEL-2 melanoma
[13] = test system: HCC-2998 colon
[14] = test system: SF-268 CNS
[15] = test system: SK-MEL-5 melanoma
[16] = test system: A498 renal
[17] = test system: HS 578T breast
[18] = test system: HCT-15 colon
[19] = test system: M14 melanoma
[20] = test system: TK-10 renal
[21] = test system: SK-OV-3 ovarian
[22] = test system: 786-0 renal
[23] = test system: KM12 colon
[24] = test system: MDA-MB-231 breast
[25] = test system: HL-60(TB) leukemia
[26] = test system: K-562 leukemia
[27] = test system: RPMI-8226 leukemia
[28] = test system: ACHN renal
[29] = test system: OVCAR-8 ovarian
[30] = test system: SK-MEL-28 melanoma
[31] = test system: LOX IMVI melanoma
[32] = test system: SF-295 CNS
[33] = test system: UACC-257 melanoma
[34] = test system: OVCAR-4 ovarian
[35] = test system: CCRF-CEM leukemia
[36] = test system: NCI/ADR-RES ovarian
[37] = test system: NCI-H460 lung
[38] = test system: HOP-92 NSCLC
[39] = test system: OVCAR-3 ovarian
[40] = test system: MCF7 breast
[41] = test system: HOP-62 NSCLC
[42] = test system: DU-145 prostate
[43] = test system: A549 NSCLC
[44] = test system: UACC-62 melanoma
[45] = test system: MALME-3M melanoma
[46] = test system: SNB-75 CNS
[47] = test system: OVCAR-5 ovarian
[48] = test system: UO-31 renal
[49] = test system: SN12C renal
[50] = test system: IGROV1 ovarian
[51] = test system: EKVX NSCLC
[52] = test system: PC-3 prostate
[53] = test system: U251 CNS
[54] = test system: SW-620 colon
[55] = test system: NCI-H522 lung
[56] = test system: RXF 393 renal
[57] = test system: SF-539 CNS
[58] = test system: HT29 colon

Structure (SMILES): CC1=C2[C@@H](CC1)[C@]1(C)O[C@@](C3CCCCC3)(C[C@H]1OC(=O)CO)[C@H]2OC(=O)/C=C/c1ccccc1
- GI50 [1]: 13.1 µM
- TGI [1]: 31.4 µM
- GI50 [2]: 8.06 µM
- TGI [2]: 24.3 µM
- GI50 [3]: 5.92 µM
- TGI [3]: 22 µM
- GI50 [4]: 0.328 µM
- TGI [4]: 6.67 µM
- GI50 [5]: 5.82 µM
- TGI [5]: 17.4 µM
- GI50 [6]: 7.58 µM
- TGI [6]: 23.5 µM
- GI50 [7]: 4.6 µM
- TGI [7]: 17.9 µM
- GI50 [8]: 7.12 µM
- TGI [8]: 21.1 µM
- GI50 [9]: 4.69 µM
- TGI [9]: 17.5 µM
- GI50 [10]: 8.65 µM
- TGI [10]: 26.1 µM
- GI50 [11]: 8.65 µM
- TGI [11]: 23.6 µM
- GI50 [12]: 11.5 µM
- TGI [12]: 27.9 µM
- GI50 [13]: 6.3 µM
- TGI [13]: 18.4 µM
- GI50 [14]: 1.02 µM
- TGI [14]: 17.6 µM
- GI50 [15]: 12 µM
- TGI [15]: 24.9 µM
- GI50 [16]: 0.0208 µM
- TGI [16]: 0.0731 µM
- GI50 [17]: 0.0202 µM
- TGI [17]: 0.281 µM
- GI50 [18]: 5.23 µM
- TGI [18]: 15.7 µM
- GI50 [19]: 8.9 µM
- TGI [19]: 26.8 µM
- GI50 [20]: 12.3 µM
- TGI [20]: 26.5 µM
- GI50 [21]: 9.71 µM
- TGI [21]: 24.5 µM
- GI50 [22]: 1.48 µM
- TGI [22]: 17.6 µM
- GI50 [23]: 8.34 µM
- TGI [23]: 24.7 µM
- GI50 [24]: 18.3 µM
- TGI [24]: 41.5 µM
- GI50 [25]: 6.48 µM
- TGI [25]: 18.3 µM
- GI50 [26]: 7.14 µM
- TGI [26]: 32.1 µM
- GI50 [27]: 9.51 µM
- TGI [27]: 33.2 µM
- GI50 [28]: 0.0331 µM
- TGI [28]: 4.25 µM
- GI50 [29]: 0.11 µM
- TGI [29]: 12.9 µM
- GI50 [30]: 9.53 µM
- TGI [30]: 27.1 µM
- GI50 [31]: 5.31 µM
- TGI [31]: 11.2 µM
- GI50 [32]: 6.45 µM
- TGI [32]: 19 µM
- GI50 [33]: 12.3 µM
- TGI [33]: 26 µM
- GI50 [34]: 8.37 µM
- TGI [34]: 23.7 µM
- GI50 [35]: 7.45 µM
- TGI [35]: 24.1 µM
- GI50 [36]: 0.186 µM
- TGI [36]: 11.6 µM
- GI50 [37]: 6.35 µM
- TGI [37]: 17.8 µM
- GI50 [38]: 3.68 µM
- TGI [38]: 12.2 µM
- GI50 [39]: 6.92 µM
- TGI [39]: 18.7 µM
- GI50 [40]: 3.09 µM
- TGI [40]: 13.4 µM
- GI50 [41]: 12 µM
- TGI [41]: 25.5 µM
- GI50 [42]: 9.68 µM
- TGI [42]: 23.4 µM
- GI50 [43]: 7.19 µM
- TGI [43]: 20.5 µM
- GI50 [44]: 9.82 µM
- TGI [44]: 25.8 µM
- GI50 [45]: 12 µM
- TGI [45]: 28 µM
- GI50 [46]: 7.94 µM
- TGI [46]: 34.8 µM
- GI50 [47]: 15.2 µM
- TGI [47]: 37.1 µM
- GI50 [48]: 0.359 µM
- TGI [48]: 14.9 µM
- GI50 [49]: 0.318 µM
- TGI [49]: 15.1 µM
- GI50 [50]: 18.7 µM
- TGI [50]: 44.1 µM
- GI50 [51]: 5.83 µM
- TGI [51]: 19.5 µM
- GI50 [52]: 6.33 µM
- TGI [52]: 21.2 µM
- GI50 [53]: 7.72 µM
- TGI [53]: 20.5 µM
- GI50 [54]: 9.26 µM
- TGI [54]: 25.1 µM
- GI50 [55]: 7.71 µM
- TGI [55]: 22.5 µM
- GI50 [56]: 0.029 µM
- TGI [56]: 0.483 µM
- GI50 [57]: 12.8 µM
- TGI [57]: 27.7 µM
- GI50 [58]: 6.1 µM
- TGI [58]: 16.9 µM
